From patent US20230322767A1, “ARYL SUBSTITUTED PYRROLO-PYRIDINONES AND THERAPEUTIC USES THEREOF” (Bayer Aktiengesellschaft, priority 2020, published 2023)

Assays:
CSNK1A1 = CSNK1A1 (Homo sapiens (Human), UniProt P48729); experiment: CSNK1A1 Assay 2 (ADP-Glo, 1 μM ATP); type: biochemical; details: median, read-out: CSNK1A1 Assay 2 IC50 [mol/l] (median)
Procedure, shortened: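 Enzyme (~0.0375 ng/μL) preincubated 15 min at 22° C with compound in HEPES pH 7.5 buffer, then reacted with 1 μM ATP and biotin-Ahx-KRRRAL-pS-VASLPGL peptide. ADP product measured by ADP-Glo luminescence after 1 h ATP depletion and 1 h detection at 22° C.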

CSNK1D = CSNK1D (Homo sapiens (Human), UniProt P48730); experiment: CSNK1D Assay (ADP-Glo, 1 μM ATP); type: biochemical; details: median, read-out: CSNK1D IC50 [mol/l] (median)
Procedure, shortened: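 Enzyme preincubated with compound 15 min at 22° C in 50 mM HEPES pH 7.5 buffer with 10 mM MgCl2, 1 mM DTT; kinase reaction run at 1 μM ATP with biotinylated peptide substrate. ADP formed was detected by ADP-Glo luminescence as the measure of activity.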

CSNK1A1, sequence (P48729 whole entry): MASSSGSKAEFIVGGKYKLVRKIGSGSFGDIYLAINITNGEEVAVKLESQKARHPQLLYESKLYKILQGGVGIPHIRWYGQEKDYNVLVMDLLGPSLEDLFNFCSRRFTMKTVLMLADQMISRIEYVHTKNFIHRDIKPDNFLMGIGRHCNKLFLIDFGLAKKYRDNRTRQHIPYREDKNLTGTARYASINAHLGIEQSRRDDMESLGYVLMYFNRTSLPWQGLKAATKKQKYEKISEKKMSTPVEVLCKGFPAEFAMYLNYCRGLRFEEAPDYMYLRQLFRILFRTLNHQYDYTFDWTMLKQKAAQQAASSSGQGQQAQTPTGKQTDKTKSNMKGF
CSNK1D, sequence (P48730 whole entry): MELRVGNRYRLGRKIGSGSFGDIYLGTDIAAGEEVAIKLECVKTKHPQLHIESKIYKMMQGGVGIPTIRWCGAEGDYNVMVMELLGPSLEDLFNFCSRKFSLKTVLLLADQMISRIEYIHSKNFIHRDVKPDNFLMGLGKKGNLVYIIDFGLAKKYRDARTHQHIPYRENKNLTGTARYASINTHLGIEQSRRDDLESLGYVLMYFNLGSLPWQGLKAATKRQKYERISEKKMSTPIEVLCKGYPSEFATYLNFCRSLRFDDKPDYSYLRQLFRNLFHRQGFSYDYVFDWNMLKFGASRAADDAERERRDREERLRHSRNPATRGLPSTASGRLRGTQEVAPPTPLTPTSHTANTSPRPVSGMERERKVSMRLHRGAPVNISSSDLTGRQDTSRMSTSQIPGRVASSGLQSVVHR

CC(C(=O)Nc1cc(-c2[nH]c3c(c2-c2ccccc2)C(=O)N(C)C2(CCC2)C3)ccn1)c1ccc(F)cc1 (single isomer, unassigned; (-)) [Example 53, (−)-2-(4-fluorophenyl)-N-[4-(5′-methyl-4′-oxo-3′-phenyl-1′,4′,5′,7′-tetrahydrospiro[cyclobutane-1,6′-pyrrolo[3,2-c]pyridin]-2′-yl)pyridin-2-yl]propanamide] was tested, and the IC50 (CSNK1A1) was 21 nM and the IC50 (CSNK1D) was 16 nM.

Work on CN1CCc2[nH]c(-c3ccnc(NC(=O)Cc4ccc(F)cc4)c3)c(-c3cccnc3)c2C1=O [Example 12, 2-(4-fluorophenyl)-N-{4-[5-methyl-4-oxo-3-(pyridin-3-yl)-4,5,6,7-tetrahydro-1H-pyrrolo[3,2-c]pyridin-2-yl]pyridin-2-yl}acetamide] yielded an IC50 (CSNK1A1) of 10 nM and an IC50 (CSNK1D) of 13 nM.

Compound CC(C(=O)Nc1cc(-c2[nH]c3c(c2-c2ccccc2)C(=O)N(C)CC3CC(F)(F)F)ccn1)c1ccc(F)cc1 (centres unmarked) [Example 13, 2-(4-fluorophenyl)-N-{4-[5-methyl-4-oxo-3-phenyl-7-(2,2,2-trifluoroethyl)-4,5,6,7-tetrahydro-1H-pyrrolo[3,2-c]pyridin-2-yl]pyridin-2-yl}propanamide] has an IC50 (CSNK1A1) of 3.5 nM and an IC50 (CSNK1D) of 3.9 nM.

CN1CC(CC(F)(F)F)c2[nH]c(-c3ccnc(NC(=O)C(CC(F)F)c4ccc(F)cc4)c3)c(-c3ccccc3)c2C1=O (centres unmarked) [Example 17, 4,4-difluoro-2-(4-fluorophenyl)-N-{4-[5-methyl-4-oxo-3-phenyl-7-(2,2,2-trifluoroethyl)-4,5,6,7-tetrahydro-1H-pyrrolo[3,2-c]pyridin-2-yl]pyridin-2-yl}butanamide] showed an IC50 (CSNK1A1) of 4.7 nM and an IC50 (CSNK1D) of 4.3 nM.

Compound CC(C(=O)Nc1cc(-c2[nH]c3c(c2-c2ccc(F)cc2)C(=O)N(C)CC3CC(F)(F)F)ccn1)c1ccc(F)cc1 (centres unmarked) [Example 21, 2-(4-fluorophenyl)-N-{4-[3-(4-fluorophenyl)-5-methyl-4-oxo-7-(2,2,2-trifluoroethyl)-4,5,6,7-tetrahydro-1H-pyrrolo[3,2-c]pyridin-2-yl]pyridin-2-yl}propanamide] has an IC50 (CSNK1A1) of 8.6 nM and an IC50 (CSNK1D) of 6.6 nM.

Compound CN1CC(CC(F)(F)F)c2[nH]c(-c3ccnc(NC(=O)C(CC(F)F)c4ccc(F)cc4)c3)c(-c3ccc(F)cc3)c2C1=O (centres unmarked) [Example 25, 4,4-difluoro-2-(4-fluorophenyl)-N-{4-[3-(4-fluorophenyl)-5-methyl-4-oxo-7-(2,2,2-trifluoroethyl)-4,5,6,7-tetrahydro-1H-pyrrolo[3,2-c]pyridin-2-yl]pyridin-2-yl}butanamide] has an IC50 (CSNK1A1) of 6.4 nM and an IC50 (CSNK1D) of 5 nM.

For CC1CN(C)C(=O)c2c1[nH]c(-c1ccnc(NC(=O)C(C)c3ccc(F)cc3)c1)c2-c1ccc(F)cc1 (centres unmarked) [Example 29, 2-(4-fluorophenyl)-N-{4-[3-(4-fluorophenyl)-5,7-dimethyl-4-oxo-4,5,6,7-tetrahydro-1H-pyrrolo[3,2-c]pyridin-2-yl]pyridin-2-yl}propanamide], the IC50 (CSNK1A1) was 2.9 nM and the IC50 (CSNK1D) was 4.1 nM.

Work on CC1CN(C)C(=O)c2c1[nH]c(-c1ccnc(NC(=O)C(CC(F)F)c3ccc(F)cc3)c1)c2-c1ccc(F)cc1 (centres unmarked) [Example 33, 4,4-difluoro-2-(4-fluorophenyl)-N-{4-[3-(4-fluorophenyl)-5,7-dimethyl-4-oxo-4,5,6,7-tetrahydro-1H-pyrrolo[3,2-c]pyridin-2-yl]pyridin-2-yl}butanamide] yielded an IC50 (CSNK1A1) of 4.3 nM and an IC50 (CSNK1D) of 4.3 nM.

CC1CN(C)C(=O)c2c1[nH]c(-c1ccnc(NC(=O)C(C)c3ccc(F)cc3)c1)c2-c1ccccc1 (centres unmarked) [Example 37, N-{4-[5,7-dimethyl-4-oxo-3-phenyl-4,5,6,7-tetrahydro-1H-pyrrolo[3,2-c]pyridin-2-yl]pyridin-2-yl}-2-(4-fluorophenyl)propanamide] showed an IC50 (CSNK1A1) of 3.1 nM and an IC50 (CSNK1D) of 4.1 nM.

With CC1CN(C)C(=O)c2c1[nH]c(-c1ccnc(NC(=O)C(CC(F)F)c3ccc(F)cc3)c1)c2-c1ccccc1 (centres unmarked) [Example 39, N-{4-[5,7-dimethyl-4-oxo-3-phenyl-4,5,6,7-tetrahydro-1H-pyrrolo[3,2-c]pyridin-2-yl]pyridin-2-yl}-4,4-difluoro-2-(4-fluorophenyl)butanamide] the IC50 (CSNK1A1) was 3 nM and the IC50 (CSNK1D) was 3.7 nM.
